In assay [1] the target is T1, AaDOP1 (Aedes aegypti, UniProt H6D5H1). Description: CRELuc reporter dose-response in HEK293 cells stably expressing AaDOP1. In kind it is cell-based. The following applies: HEK293 cells stably expressing CRELuc reporter and AaDOP1.
In a further assay the target is AaDOP2 (Aedes aegypti, UniProt H6D5H2). The following applies: single dose 10 μM, transient expression, n=3.
For another assay, the target named is Isdop2 (Ixodes scapularis, UniProt A0ACM8DGL0). Briefly: CRE-Luc reporter assay, HEK cells stably expressing Isdop2. In kind it is cell-based.
Assay [2] addresses T1, AaDOP1. The settings on record: single dose 10 μM, transient expression, n=3.
The next assay has as its target Isdop1 (Ixodes scapularis, UniProt A0ACM8FJJ0). Description: CRE-Luc reporter assay, HEK cells stably expressing Isdop1. In kind it is cell-based. On the technique in general: A reporter such as luciferase makes a cellular process visible.

The source of these data is patent US20140350081A1, “INSECT G-COUPLED RECEPTORS USEFUL AS TARGETS FOR INSECTICIDES AND COMPOUNDS AND REAGENTS IDENTIFIED USING THE SAME” (priority 2011, published 2014).

T1 sequence (H6D5H1 entry or part of it): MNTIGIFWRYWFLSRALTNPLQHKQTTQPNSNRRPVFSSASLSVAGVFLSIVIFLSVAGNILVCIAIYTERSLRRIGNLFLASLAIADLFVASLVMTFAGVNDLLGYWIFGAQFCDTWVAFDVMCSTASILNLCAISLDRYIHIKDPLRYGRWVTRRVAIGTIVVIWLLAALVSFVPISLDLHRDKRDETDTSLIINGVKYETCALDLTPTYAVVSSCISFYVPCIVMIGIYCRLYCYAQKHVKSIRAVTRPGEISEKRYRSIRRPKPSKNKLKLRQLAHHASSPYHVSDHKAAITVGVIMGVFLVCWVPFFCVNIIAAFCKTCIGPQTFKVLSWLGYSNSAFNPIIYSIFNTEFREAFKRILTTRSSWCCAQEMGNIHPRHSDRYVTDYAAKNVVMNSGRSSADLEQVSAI
Sequence of Isdop2 (A0ACM8DGL0 entry or part of it): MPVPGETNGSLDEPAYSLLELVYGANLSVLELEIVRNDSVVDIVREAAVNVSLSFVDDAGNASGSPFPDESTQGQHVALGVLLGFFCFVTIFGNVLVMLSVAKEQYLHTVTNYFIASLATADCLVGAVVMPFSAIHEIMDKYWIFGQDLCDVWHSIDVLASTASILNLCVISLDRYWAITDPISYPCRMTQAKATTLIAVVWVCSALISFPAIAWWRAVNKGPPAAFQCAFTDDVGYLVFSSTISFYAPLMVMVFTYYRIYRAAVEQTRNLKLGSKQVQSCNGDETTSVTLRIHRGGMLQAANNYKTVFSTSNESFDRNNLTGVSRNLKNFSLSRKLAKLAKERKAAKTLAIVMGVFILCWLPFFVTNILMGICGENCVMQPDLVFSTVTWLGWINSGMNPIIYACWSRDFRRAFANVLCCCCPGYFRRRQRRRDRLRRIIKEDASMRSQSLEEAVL
Sequence of AaDOP2 (H6D5H2 entry or part of it): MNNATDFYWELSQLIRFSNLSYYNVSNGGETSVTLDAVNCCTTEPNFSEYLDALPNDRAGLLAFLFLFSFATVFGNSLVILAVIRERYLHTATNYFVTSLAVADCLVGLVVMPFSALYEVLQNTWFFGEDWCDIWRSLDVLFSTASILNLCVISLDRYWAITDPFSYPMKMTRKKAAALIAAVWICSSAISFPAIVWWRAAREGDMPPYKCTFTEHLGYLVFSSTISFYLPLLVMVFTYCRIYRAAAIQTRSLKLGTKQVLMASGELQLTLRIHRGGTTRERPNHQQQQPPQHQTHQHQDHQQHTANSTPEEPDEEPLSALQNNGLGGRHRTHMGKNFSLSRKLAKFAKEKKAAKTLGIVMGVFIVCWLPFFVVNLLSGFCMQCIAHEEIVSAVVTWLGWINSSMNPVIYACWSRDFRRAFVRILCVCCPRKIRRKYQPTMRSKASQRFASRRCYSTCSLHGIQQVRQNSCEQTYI

In general, EC50 refers to the concentration at which the effect is half-maximal. Low values mean an effect from little substance, high ones a need for much substance. On to `NCCc1ccc(O)c(O)c1` [Dopamine], for which the EC50 at AaDOP1 [1] is 0.0031 ± 0.0011 µM; on Isdop2, approximately 0.145 µM; at Isdop1, approximately 0.031 µM. In addition, on AaDOP2, the “increase of intracellular cAMP, AaDOP2” value stood at 48±14 fold. For the same compound, the “increase of intracellular cAMP, AaDOP1” value on AaDOP1 [2] amounted to 2.7±0.6 fold.
